“And” between values parts separate entries of the source, which are not always exact repeats. Equal entries are not always repeated. Where two headings read alike, the source gives them in different places.
Test: Plasma pharmacokinetics of lorlatinib at steady state (LC-MS/MS, non-compartmental analysis)
Format: in vivo, human
Design: Vz_F / Cmax_D / AUMClast / AUMC_TAU: unit not given here
Settings: for Tlag: unit assumed
Source text: Lorlatinib was isolated from human plasma by a liquid-iquid extraction procedure. […] A linear-log trapezoidal method was used [NT] A best-fit method was used to estimate terminal elimination and to extrapolate any plasma concentration versus time profiles to compute [NT].

[1] = Cycle 1 Day 1, Cohort B2, 115 mg/m2 per dose
[2] = Cycle 1 Day 1, Cohort A1, 45 mg/m2 per dose, individual patients
[3] = Cycle 1 Day 1, Cohort A1, 60 mg/m2 per dose, individual patients
[4] = Cycle 1 Day 1, Cohort A1, 75 mg/m2 per dose, individual patients
[5] = Cycle 1 Day 1, Cohort A1, 95 mg/m2 per dose, individual patients
[6] = Cycle 1 Day 1, Cohort A1, 115 mg/m2 per dose, individual patients
[7] = Cycle 1 Day 1, Cohort A2, 100 mg per dose, individual patients
[8] = Cycle 1 Day 1, Cohort A2, 150 mg per dose, individual patients
[9] = Cycle 1 Day 1, Cohort A2, 150 mg per dose, individual patients, in ng/mL
[10] = Cycle 1 Day 1, Cohort A2, 150 mg per dose, individual patients, in ng·h/mL (unit assumed)
[11] = Cycle 1 Day 1, Cohort A2, 150 mg per dose, individual patients, listed as lorlatinib, in h (unit assumed)
[12] = Cycle 1 Day 1, patient N0773, Cohort B2, 115 mg/m2 per dose, Dose 75
[13] = Cycle 1 Day 15, Cohort A1, 95 mg/m2 per dose
[14] = Cycle 1 Day 15, Cohort A1, 95 mg/m2 per dose, in h (unit assumed)
[15] = Cycle 1 Day 15, Cohort A1, 115 mg/m2 per dose
[16] = Cycle 1 Day 15, Cohort A2, 150 mg per dose
[17] = Cycle 1 Day 15, Cohort A2, 150 mg per dose, in h (unit assumed)
[18] = Cycle 1 Day 15, Cohort A2, 150 mg per dose, in ng·h/mL (unit assumed)
[19] = Cycle 1 Day 15, Cohort B2, 95 mg/m2 per dose
[20] = Cycle 1 Day 15, Cohort B2, 95 mg/m2 per dose, in h (unit assumed)
[21] = Cycle 1 Day 15, Cohort B2, 95 mg/m2 per dose, in ng/mL
[22] = Cycle 1 Day 15, Cohort B2, 95 mg/m2 per dose, in ng·h/mL (unit assumed)
[23] = Cycle 1 Day 15, Cohort B2, 115 mg/m2 per dose
[24] = Cycle 1 Day 15, Cohort A1, 45 mg/m2 per dose, individual patients
[25] = Cycle 1 Day 15, Cohort A1, 45 mg/m2 per dose, individual patients, in h (unit assumed)
[26] = Cycle 1 Day 15, Cohort A1, 60 mg/m2 per dose, individual patients
[27] = Cycle 1 Day 15, Cohort A1, 60 mg/m2 per dose, individual patients, in h (unit assumed)
[28] = Cycle 1 Day 15, Cohort A1, 75 mg/m2 per dose, individual patients
[29] = Cycle 1 Day 15, Cohort A1, 75 mg/m2 per dose, individual patients, in h (unit assumed)
[30] = Cycle 1 Day 15, Cohort A1, 75 mg/m2 per dose, individual patients, in ng·h/mL (unit assumed)
[31] = Cycle 1 Day 15, Cohort A1, 95 mg/m2 per dose, individual patients
[32] = Cycle 1 Day 15, Cohort A1, 95 mg/m2 per dose, individual patients, in h (unit assumed)
[33] = Cycle 1 Day 15, Cohort A1, 115 mg/m2 per dose, individual patients

C[C@H]1Oc2cc(cnc2N)-c2c(nn(C)c2C#N)CN(C)C(=O)c2ccc(F)cc21 [Lorlatinib, (10R)-7-amino-12-fluoro-2,10,16-trimethyl-15-oxo-10,15,16,17-tetrahydro-2H-8,4-(metheno)pyrazolo[4,3-h][2,5,11]-benzoxadiazacyclotetradecine-3-carbonitrile]
Tlag (Cycle 1 Day 1, Cohort A2, 150 mg per dose): 0 h
Tlag (Cycle 1 Day 1, Cohort B2, 95 mg/m2 per dose): 0 h
Tlast [1]: 24 h
Tmax (Cycle 1 Day 1, Cohort B2, 115 mg/m2 per dose, in h (unit assumed)): 1
Tmax (Cycle 1 Day 1, Cohort B2, 115 mg/m2 per dose, listed as lorlatinib, in h (unit assumed)): 2
Tlag [1]: 0 h
Tlast [2]: 24 h
Tmax (Cycle 1 Day 1, Cohort A1, 45 mg/m2 per dose, individual patients, in h (unit assumed)): 2
Tlag [2]: 0 h
Tlast [3]: 24 h
Tlag [3]: 0 h
Tlast [4]: 24 h
Tmax (Cycle 1 Day 1, Cohort A1, 75 mg/m2 per dose, individual patients, in h (unit assumed)): 2
Cmax (Cycle 1 Day 1, Cohort A1, 75 mg/m2 per dose, individual patients, in ng/mL): 779
Tlag [4]: 0 h
Tlast [5]: 24 h
Tlag [5]: 0 h
AUMClast [6]: 125336.7763
Cmax_D [6]: 11.08
Tlast [6]: 24 h
Clast (Cycle 1 Day 1, Cohort A1, 115 mg/m2 per dose, individual patients, in ng/mL): 172
Tlag [6]: 0 h
Tlast [7]: 24 h
Tmax (Cycle 1 Day 1, Cohort A2, 100 mg per dose, individual patients, in h (unit assumed)): 2
Tlag [7]: 0 h
AUMClast [8]: 49463.3786 and 88733.21472 and 92632.60987
Cmax_D [8]: 3.76 and 5.527 and 7.067
Tlast [8]: 24 h
Tmax (Cycle 1 Day 1, Cohort A2, 150 mg per dose, individual patients, in h (unit assumed)): 2
Clast [9]: 70.8 and 151 and 127
Cmax [9]: 829 and 1060
AUCall [10]: 9320 and 11097.69267
AUClast [10]: 9320 and 11097.69267
MRTlast [11]: 9.52 and 8.347
Tmax [11]: 2
Tlag [8]: 0 h
AUMClast [12]: 89144.88493
Cmax_D [12]: 22.13
Tlast [12]: 24 h
Tlag [12]: 0 h
AUC_TAU_%Extrap [13]: 0%
Tlast [13]: 24 h
Tmax [14]: 1
Tmin [14]: 0
Cavg (Cycle 1 Day 15, Cohort A1, 95 mg/m2 per dose, in ng/mL): 288.1
Tlag [13]: 0 h
AUC_TAU_%Extrap [15]: 0%
Tlast [15]: 24 h
Tmin (Cycle 1 Day 15, Cohort A1, 115 mg/m2 per dose, in h (unit assumed)): 0
Tlag [15]: 0 h
AUC_TAU_%Extrap [16]: 0%
AUMC_TAU [16]: 48864.79941 and 48509.22474 and 72138.31531 and 51031.1075 and 68396.67554 and 68306.96584 and 82226.35285
Accumulation_Index [16]: 1.404 and 1.221 and 1.584 and 1.215 and 1.756 and 1.451 and 1.861
CLss_F [16]: 30.01 and 26.36 and 19.5 and 22.81 and 21.08 and 21.41 and 18.08
Tlast [16]: 24 h
Vz_F [16]: 578.5 and 370.3 and 469.1 and 316.3 and 600.6 and 439.8 and 562.8
Tmax [17]: 1
Tmin [17]: 0
Cavg (Cycle 1 Day 15, Cohort A2, 150 mg per dose, in ng/mL): 208.3 and 237.1 and 320.6 and 274 and 296.5 and 291.9 and 345.7
AUC_TAU [18]: 5690 and 7694 and 6577 and 7116 and 7005
AUCall [18]: 5690 and 7694 and 6577 and 7116 and 7005
AUClast [18]: 5690 and 7694 and 6577 and 7116 and 7005 and 8297
Tmax (Cycle 1 Day 15, Cohort A2, 150 mg per dose, read-out: Tmax): 1 h (4×) and 2 h
Tlag [16]: 0 h
AUC_%Extrap_obs [19]: 3.629%
AUC_%Extrap_pred [19]: 3.558%
AUC_TAU_%Extrap [19]: 0%
Accumulation_Index [19]: 1.029
Tlast [19]: 24 h
Vz_F [19]: 73.35
HL_Lambda_z [20]: 4.68
Tmax [20]: 2
Tmin [20]: 0
Lambda_z (Cycle 1 Day 15, Cohort B2, 95 mg/m2 per dose, in h-1 (unit assumed)): 0.1481
Clast_pred [21]: 30.18
Cmax [21]: 721
AUC_TAU [22]: 5523
AUCall [22]: 5523
AUClast [22]: 5523
Tlag [19]: 0 h
AUC_TAU_%Extrap [23]: 0%
Tlast [23]: 24 h
Tmax (Cycle 1 Day 15, Cohort B2, 115 mg/m2 per dose, in h (unit assumed)): 1
Tmax (Cycle 1 Day 15, Cohort B2, 115 mg/m2 per dose, listed as lorlatinib, in h (unit assumed)): 2
Tlag [23]: 0 h
AUC_TAU_%Extrap [24]: 0%
Tlast [24]: 24 h
Vz_F [24]: 335.3
Tmax [25]: 2
Tmin [25]: 0
Tlag [24]: 0 h
AUC_TAU_%Extrap [26]: 0%
Tlast [26]: 24 h
Tmax [27]: 2
Tmin [27]: 0
Cmax (Cycle 1 Day 15, Cohort A1, 60 mg/m2 per dose, individual patients, in ng/mL): 343
Tlag [26]: 0 h
AUC_TAU_%Extrap [28]: 0%
Tlast [28]: 24 h
MRTINF_obs [29]: 9.338
MRTINF_pred [29]: 9.311
Tmin [29]: 0
AUCINF_obs [30]: 3021
AUCINF_pred [30]: 3018
Tlag [28]: 0 h
AUC_TAU_%Extrap [31]: 0%
Tlast [31]: 24 h
MRTINF_obs [32]: 11.95
MRTINF_pred [32]: 11.86
Tmax [32]: 2
Tmin [32]: 0
Tlag [31]: 0 h
AUC_%Extrap_obs [33]: 23.66%
AUC_%Extrap_pred [33]: 23.4%
AUC_TAU_%Extrap [33]: 0%
AUMC_TAU [33]: 68314.30452
Accumulation_Index [33]: 1.333
CLss_F [33]: 15.84
Cmax_D [33]: 10.38
Fluctuation% [33]: 351.8%
Fluctuation%_Tau [33]: 351.8%
